Source: ChEMBL document CHEMBL1201862, “PubChem BioAssay data set” (2004)
One block for each compound: values may come before it. The source made the active and inactive calls.

Columns and labels:
[1] = target: T1, Heat shock factor protein 1 (Mus musculus, UniProt P38532); assay: inhibition of MG132-induced HSE-luciferase signal, confirmation, cell-based, NIH3T3, luminescence, dose retest (AID 2382); format: functional;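 also: NIH3T3 fibroblasts with HSF1-driven luciferase reporter stressed by proteasome inhibitor MG132; luminescence from HSF1-driven luciferase expression after 8 hours of MG132 stress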
T1 sequence (P38532 whole entry): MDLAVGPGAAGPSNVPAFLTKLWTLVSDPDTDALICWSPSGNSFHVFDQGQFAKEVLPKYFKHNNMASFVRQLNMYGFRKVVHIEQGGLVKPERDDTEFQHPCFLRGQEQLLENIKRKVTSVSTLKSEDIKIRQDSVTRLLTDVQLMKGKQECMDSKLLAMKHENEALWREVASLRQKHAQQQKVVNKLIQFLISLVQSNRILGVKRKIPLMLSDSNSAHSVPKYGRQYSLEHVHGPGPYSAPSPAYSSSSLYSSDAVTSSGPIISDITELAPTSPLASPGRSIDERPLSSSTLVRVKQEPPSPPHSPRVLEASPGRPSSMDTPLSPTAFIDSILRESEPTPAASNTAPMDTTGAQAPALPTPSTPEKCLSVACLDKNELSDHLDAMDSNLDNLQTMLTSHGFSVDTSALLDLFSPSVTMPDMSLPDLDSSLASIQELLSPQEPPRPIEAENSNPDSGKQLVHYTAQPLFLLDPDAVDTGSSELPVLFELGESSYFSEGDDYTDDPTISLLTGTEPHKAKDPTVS

[2] = target: Macrophage colony-stimulating factor 1 receptor (Homo sapiens, UniProt P07333); format: functional;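 also: value comes from the Navigating the Kinome screening panel, CSF1R member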
[3] = target: Receptor-type tyrosine-protein kinase FLT3 (Homo sapiens, UniProt P36888); format: functional;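 also: FLT3 was tested as one member of a kinome-wide kinase panel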
[4] = target: cAMP-dependent protein kinase catalytic subunit PRKX (Homo sapiens, UniProt P51817); format: functional
[5] = target: Dual specificity tyrosine-phosphorylation-regulated kinase 1B (Homo sapiens, UniProt Q9Y463); assay: Navigating the Kinome. Panel member name: DYRK1B; format: functional
[6] = target: Mitogen-activated protein kinase 14 (Homo sapiens, UniProt Q16539); format: functional;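 also: part of a kinome-wide panel, MAPK14 entry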
[7] = target: G protein-coupled receptor kinase 5 (Homo sapiens, UniProt P34947); assay: Navigating the Kinome. Panel member name: GPRK5; format: functional
[8] = target: Platelet-derived growth factor receptor beta (Homo sapiens, UniProt P09619); format: functional;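 also: value comes from a kinome panel, with PDGFRB tested as one panel member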
[9] = target: cAMP-dependent protein kinase catalytic subunit alpha (Homo sapiens, UniProt P17612); format: functional
[10] = target: Casein kinase I isoform alpha (Homo sapiens, UniProt P48729); format: functional
[11] = target: Leucine-rich repeat serine/threonine-protein kinase 2 (Homo sapiens, UniProt Q5S007); format: functional;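 also: value from a broad kinome-wide panel profiling study in which LRRK2 was one of the kinases tested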
[12] = target: Dual specificity protein kinase CLK2 (Homo sapiens, UniProt P49760); format: functional
[13] = target: Mitogen-activated protein kinase 9 (Homo sapiens, UniProt P45984); format: functional;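 also: value from a kinome panel profiling assay, MAPK9 panel entry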
[14] = target: T2, 1-phosphatidylinositol 4,5-bisphosphate phosphodiesterase gamma-1 (Homo sapiens, UniProt P19174); assay: Counterscreen for inhibitors of phospholipase C isozymes (PLC-B3): Fluorescence-based biochemical high throughput dose response assay to identify inhibitors of phospholipase C isozymes (PLC-gamma1).
T2 sequence (P19174 whole entry): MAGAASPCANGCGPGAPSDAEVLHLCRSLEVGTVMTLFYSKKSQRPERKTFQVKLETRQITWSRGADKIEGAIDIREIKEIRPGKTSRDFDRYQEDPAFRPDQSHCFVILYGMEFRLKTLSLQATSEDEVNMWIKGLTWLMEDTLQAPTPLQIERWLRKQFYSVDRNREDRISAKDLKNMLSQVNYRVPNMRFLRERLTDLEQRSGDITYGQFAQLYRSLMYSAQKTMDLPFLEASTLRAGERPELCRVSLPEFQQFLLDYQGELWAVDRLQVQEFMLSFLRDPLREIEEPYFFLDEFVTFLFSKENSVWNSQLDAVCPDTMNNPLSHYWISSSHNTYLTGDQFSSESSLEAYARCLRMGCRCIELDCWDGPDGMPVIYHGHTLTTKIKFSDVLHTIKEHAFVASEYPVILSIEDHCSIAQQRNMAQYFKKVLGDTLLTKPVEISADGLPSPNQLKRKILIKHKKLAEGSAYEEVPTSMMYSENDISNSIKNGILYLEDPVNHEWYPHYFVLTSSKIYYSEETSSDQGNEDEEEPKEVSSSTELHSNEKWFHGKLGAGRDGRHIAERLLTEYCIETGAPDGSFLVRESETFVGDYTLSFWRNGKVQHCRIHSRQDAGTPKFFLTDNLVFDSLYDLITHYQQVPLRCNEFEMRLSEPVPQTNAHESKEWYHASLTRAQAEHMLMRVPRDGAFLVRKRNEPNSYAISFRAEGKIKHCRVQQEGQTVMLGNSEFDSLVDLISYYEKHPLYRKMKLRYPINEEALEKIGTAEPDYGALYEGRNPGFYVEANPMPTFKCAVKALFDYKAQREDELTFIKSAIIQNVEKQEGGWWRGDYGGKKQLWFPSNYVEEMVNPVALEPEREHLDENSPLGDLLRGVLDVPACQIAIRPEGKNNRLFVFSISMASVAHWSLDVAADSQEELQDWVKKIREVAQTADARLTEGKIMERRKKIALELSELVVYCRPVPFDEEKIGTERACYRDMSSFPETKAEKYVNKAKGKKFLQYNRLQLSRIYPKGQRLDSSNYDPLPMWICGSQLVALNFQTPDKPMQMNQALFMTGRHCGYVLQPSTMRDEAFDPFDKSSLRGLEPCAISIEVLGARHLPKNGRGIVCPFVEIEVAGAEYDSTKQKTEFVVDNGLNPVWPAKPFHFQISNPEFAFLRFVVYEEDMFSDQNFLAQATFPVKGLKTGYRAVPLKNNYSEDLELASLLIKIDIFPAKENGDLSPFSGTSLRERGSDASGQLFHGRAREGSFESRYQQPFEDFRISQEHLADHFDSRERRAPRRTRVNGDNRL

Macrophage colony-stimulating factor 1 receptor, sequence (P07333 whole entry): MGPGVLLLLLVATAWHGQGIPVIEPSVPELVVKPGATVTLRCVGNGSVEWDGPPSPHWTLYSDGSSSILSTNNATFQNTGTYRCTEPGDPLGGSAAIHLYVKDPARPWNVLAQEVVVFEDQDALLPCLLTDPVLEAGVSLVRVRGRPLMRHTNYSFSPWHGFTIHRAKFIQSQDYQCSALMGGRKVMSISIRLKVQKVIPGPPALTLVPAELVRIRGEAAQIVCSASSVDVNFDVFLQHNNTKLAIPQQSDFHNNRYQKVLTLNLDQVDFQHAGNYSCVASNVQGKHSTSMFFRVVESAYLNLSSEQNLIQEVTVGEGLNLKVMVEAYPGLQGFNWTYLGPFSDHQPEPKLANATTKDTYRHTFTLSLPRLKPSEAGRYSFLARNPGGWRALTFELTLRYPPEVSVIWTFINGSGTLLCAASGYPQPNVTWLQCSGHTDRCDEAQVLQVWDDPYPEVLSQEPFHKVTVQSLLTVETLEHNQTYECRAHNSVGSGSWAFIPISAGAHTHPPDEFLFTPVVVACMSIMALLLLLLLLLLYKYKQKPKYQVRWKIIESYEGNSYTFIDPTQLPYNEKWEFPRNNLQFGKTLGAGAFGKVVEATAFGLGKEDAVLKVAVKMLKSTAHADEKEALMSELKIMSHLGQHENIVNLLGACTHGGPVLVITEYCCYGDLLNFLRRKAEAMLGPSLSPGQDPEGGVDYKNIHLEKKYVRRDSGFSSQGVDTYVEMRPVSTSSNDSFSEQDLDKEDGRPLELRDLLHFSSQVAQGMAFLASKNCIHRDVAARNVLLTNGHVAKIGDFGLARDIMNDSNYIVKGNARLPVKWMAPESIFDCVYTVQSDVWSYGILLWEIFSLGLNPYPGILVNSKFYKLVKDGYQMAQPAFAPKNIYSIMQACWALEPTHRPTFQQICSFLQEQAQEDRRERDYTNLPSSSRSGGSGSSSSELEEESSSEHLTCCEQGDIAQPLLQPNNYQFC
Dual specificity tyrosine-phosphorylation-regulated kinase 1B, sequence (Q9Y463 whole entry): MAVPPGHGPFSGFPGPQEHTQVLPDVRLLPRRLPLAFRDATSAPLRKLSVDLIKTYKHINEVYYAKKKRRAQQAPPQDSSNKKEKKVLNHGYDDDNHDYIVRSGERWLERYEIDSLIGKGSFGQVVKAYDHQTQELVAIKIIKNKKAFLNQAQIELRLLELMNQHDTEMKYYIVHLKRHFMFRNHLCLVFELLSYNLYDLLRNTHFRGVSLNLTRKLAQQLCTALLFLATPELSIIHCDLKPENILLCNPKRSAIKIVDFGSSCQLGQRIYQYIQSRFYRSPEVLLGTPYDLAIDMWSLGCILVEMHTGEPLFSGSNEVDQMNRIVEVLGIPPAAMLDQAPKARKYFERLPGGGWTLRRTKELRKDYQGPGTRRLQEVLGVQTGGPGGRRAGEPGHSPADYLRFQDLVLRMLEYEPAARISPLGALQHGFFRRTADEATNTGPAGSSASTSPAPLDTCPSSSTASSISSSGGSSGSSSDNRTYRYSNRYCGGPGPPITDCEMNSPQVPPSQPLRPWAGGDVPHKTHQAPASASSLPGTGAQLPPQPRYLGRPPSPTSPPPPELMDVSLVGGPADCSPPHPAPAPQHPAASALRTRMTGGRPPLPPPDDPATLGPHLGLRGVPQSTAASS
Receptor-type tyrosine-protein kinase FLT3, sequence (P36888 whole entry): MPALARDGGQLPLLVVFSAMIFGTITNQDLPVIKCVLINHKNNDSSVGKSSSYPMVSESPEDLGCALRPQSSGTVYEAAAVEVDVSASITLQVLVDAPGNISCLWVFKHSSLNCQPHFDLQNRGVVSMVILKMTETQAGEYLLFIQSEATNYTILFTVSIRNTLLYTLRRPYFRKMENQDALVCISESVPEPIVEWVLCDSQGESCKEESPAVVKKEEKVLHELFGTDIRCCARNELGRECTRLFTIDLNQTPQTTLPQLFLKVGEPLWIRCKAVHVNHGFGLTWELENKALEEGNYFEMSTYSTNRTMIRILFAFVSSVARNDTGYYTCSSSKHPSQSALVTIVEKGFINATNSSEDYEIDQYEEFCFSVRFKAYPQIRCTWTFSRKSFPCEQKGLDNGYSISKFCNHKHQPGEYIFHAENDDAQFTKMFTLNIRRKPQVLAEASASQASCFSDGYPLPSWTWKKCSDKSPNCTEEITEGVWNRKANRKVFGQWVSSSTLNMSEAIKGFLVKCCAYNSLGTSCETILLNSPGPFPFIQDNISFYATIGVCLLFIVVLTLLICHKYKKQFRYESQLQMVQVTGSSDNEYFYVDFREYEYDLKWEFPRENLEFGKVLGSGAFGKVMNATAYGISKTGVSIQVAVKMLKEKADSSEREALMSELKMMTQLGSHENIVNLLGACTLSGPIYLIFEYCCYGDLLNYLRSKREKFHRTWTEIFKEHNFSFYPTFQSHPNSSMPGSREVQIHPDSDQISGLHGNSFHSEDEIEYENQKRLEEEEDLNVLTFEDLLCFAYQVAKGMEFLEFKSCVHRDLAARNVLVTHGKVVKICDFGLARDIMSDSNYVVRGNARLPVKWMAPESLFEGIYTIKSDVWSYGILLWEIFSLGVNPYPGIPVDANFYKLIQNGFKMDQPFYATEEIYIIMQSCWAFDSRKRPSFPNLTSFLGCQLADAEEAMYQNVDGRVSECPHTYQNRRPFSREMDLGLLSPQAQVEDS
G protein-coupled receptor kinase 5, sequence (P34947 whole entry): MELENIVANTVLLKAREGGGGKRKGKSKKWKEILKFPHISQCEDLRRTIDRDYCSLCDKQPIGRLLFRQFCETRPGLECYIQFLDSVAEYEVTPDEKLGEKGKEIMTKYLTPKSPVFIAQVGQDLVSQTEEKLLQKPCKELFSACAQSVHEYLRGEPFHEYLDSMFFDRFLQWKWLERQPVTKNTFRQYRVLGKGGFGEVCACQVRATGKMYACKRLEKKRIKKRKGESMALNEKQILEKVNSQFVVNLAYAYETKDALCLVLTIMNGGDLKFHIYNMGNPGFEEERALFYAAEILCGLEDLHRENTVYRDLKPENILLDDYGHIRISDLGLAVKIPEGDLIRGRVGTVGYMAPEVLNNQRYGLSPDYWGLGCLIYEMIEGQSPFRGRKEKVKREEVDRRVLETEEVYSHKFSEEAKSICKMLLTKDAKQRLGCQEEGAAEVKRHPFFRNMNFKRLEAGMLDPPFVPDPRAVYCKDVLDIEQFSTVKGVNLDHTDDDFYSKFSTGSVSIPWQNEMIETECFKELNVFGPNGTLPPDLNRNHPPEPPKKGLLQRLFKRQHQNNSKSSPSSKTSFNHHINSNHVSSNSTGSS
Platelet-derived growth factor receptor beta, sequence (P09619 whole entry): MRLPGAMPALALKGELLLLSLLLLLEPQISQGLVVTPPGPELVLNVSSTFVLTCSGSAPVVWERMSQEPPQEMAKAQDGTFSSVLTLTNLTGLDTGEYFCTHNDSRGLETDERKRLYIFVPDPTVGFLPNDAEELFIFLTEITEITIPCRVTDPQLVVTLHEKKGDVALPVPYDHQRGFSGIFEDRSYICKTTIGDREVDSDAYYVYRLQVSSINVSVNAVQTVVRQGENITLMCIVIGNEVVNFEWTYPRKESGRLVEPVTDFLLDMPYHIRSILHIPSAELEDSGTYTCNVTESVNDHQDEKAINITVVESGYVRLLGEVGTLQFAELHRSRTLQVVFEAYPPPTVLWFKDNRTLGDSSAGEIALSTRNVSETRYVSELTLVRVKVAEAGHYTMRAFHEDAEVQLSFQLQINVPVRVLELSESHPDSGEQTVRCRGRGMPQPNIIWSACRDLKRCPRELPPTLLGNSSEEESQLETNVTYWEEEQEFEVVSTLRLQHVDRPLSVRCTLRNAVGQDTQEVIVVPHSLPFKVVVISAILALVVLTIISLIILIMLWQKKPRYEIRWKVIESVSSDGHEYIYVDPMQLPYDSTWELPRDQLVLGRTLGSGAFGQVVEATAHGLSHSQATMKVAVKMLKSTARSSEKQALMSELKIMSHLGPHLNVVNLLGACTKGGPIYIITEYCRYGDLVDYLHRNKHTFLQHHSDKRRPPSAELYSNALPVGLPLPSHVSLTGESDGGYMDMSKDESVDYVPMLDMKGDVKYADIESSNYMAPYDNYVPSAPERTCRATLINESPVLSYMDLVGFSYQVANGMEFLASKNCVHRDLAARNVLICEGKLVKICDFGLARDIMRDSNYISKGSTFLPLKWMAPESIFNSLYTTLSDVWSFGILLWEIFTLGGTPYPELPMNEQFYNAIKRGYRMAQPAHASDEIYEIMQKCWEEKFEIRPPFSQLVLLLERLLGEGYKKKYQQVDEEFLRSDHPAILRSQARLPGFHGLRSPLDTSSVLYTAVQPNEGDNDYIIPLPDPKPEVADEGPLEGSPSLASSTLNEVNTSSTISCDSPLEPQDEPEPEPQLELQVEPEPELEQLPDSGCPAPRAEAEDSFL
Dual specificity protein kinase CLK2, sequence (P49760 whole entry): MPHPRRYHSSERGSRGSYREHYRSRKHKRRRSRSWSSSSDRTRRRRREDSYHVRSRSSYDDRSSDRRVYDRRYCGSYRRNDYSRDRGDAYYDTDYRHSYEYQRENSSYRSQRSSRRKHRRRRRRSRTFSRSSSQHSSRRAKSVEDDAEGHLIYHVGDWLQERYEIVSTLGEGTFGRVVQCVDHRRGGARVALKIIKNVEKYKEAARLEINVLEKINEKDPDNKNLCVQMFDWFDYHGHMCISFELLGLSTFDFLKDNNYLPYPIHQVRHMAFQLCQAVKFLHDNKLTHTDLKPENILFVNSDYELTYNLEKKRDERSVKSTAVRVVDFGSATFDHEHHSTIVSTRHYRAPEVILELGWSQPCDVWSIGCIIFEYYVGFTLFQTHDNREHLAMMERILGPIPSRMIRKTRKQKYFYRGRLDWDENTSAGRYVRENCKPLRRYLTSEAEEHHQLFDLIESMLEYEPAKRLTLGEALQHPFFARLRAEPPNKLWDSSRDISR

Structure (SMILES): CC1(C)C=C2C(=NN(c3ccccc3)C(N)=C2C#N)CO1
EC50 [1]: > 195 µM (not active)

Ki [2]: > 2.51 µM (inactive) | Ki [3]: > 3.16 µM (inactive) | Ki [4]: > 3.16 µM (inactive) | Ki [5]: > 2.51 µM (inactive) | Ki [6]: > 3.98 µM (inactive) | Ki [7]: > 3.98 µM (inactive) | Ki [8]: > 2 µM (inactive) | Ki [9]: > 1.26 µM (inactive) | Ki [10]: > 3.98 µM (inactive) | Ki [11]: > 2.51 µM (inactive) | Ki [12]: > 3.98 µM (inactive) | Ki [13]: > 3.98 µM (inactive)
Structure (SMILES): Cc1ccc(-c2cc3nc(Br)cnc3[nH]2)cc1

Structure (SMILES): O=C1C=C(O)c2c(O)cc(O)c(O)c2C1=O
IC50 [14]: > 40.8 µM (inactive)
